Laboratory results: US20120040916A1, “MOLECULAR INHIBITORS OF THE WNT/BETA-CATENIN PATHWAY” (MASSACHUSETTS INSTITUTE OF TECHNOLOGY, priority 2008, published 2012)

Legend:
[1] = tested on: nuclear β-catenin in B16 cells; assay: Immunofluorescent staining of β-catenin in B16 cells; type: cell-based, murine
Protocol: A polyclonal rabbit anti-β-catenin antibody was used for detection of β-catenin (1:1000 dilution for immunoblot, 1:200 dilution for immunohistochemistry). Cells were grown on 18 mm glass coverslips, for 48-72 hours, fixed using 4% paraformaldehyde, permeabilized using 0.25% Triton X-100, and then blocked with 10% goat serum. Goat anti-rabbit Alexa Fluor-568 antibody (Molecular Probes; Eugene, Oreg.) was diluted 1:1000. Cells were counterstained for nucleic acid with DAPI (Molecular Probes; Eugene, Oreg.). Paraffin-embedded nevus sections were stained using an antibody dilution of 1:200. Cellular lysates were obtained by lysing cells on plate with a 0.1% NP-40 based buffer and analyzed by NuPage 4-12% gradient gels (Invitrogen; Grand Island, N.Y.). The WNT5A antibody was obtained from Cell Signaling Technologies (Danvers, Mass.).

B16 melanoma cells = assay: MTT proliferation assay of B16 melanoma cells; type: cell-based, murine
[2] = tested on: Wnt/β-catenin pathway (Axin2) in B16 cells; assay: Quantitative PCR of Axin2 in B16 cells; type: cell-based, murine
Protocol: Cells were cultured for approximately 72 hours until they reached 80-90% confluency. RNA was purified using the RNeasy kit using the manufacturer's protocol (Qiagen; Maryland, MD). cDNA was synthesized using Superscript Reverse Transcriptase (Invitrogen; Grand Island, N.Y.). Light Cycler FastStart DNA Master SYBR Green1 (Roche; Mannheim, Germany) was used for real-time PCR as previously described (Major et al., Science 316:1043 (2007), which is hereby incorporated by reference in its entirety). Quantitative PCR results presented in the manuscript are representative of experiments performed on a minimum of three biologic replicates.

[3] = tested on: human melanoma cell lines; assay: Proliferation of human melanoma cell lines (hematocytometer or MTT assay); type: cell-based; details: 10 mM lithium chloride, 3-7 days, FIG. 4D

SMILES | Nuclear β-catenin by immunofluorescent staining ([1]; 1 μM BIO vs DMSO, FIG. 5B) | Proliferation by MTT assay (B16 melanoma cells; 1 μM BIO vs control cells, FIG. 5F) | Axin2 levels by quantitative PCR ([2]; 1 μM BIO vs control cells, FIG. 5D) | Nuclear β-catenin by immunofluorescent staining ([1]; 10 mM lithium chloride vs 10 mM sodium chloride, FIG. 5A) | Proliferation by MTT assay (B16 melanoma cells; 10 mM lithium chloride vs control cells, FIG. 5E) | Axin2 levels by quantitative PCR ([2]; 10 mM lithium chloride vs control cells, FIG. 5C) | Proliferation, normalized to growth in 10 mM sodium chloride [3]
O=C1Nc2cc(Br)ccc2/C1=C1/Nc2ccccc2/C1=N\O [BIO] | increased nuclear β-catenin | decreased proliferation | increased Axing levels | – | – | – | –
[Cl-].[Li+] [lithium chloride] | – | – | – | increased nuclear β-catenin | decreased proliferation | increased Axing levels | inhibited proliferation in all human melanoma cell lines tested
